Experimental data reported in patent US6410588B1, “Use of cannabinoids as anti-inflammatory agents” (priority 1998, dated 2002).

How the values were obtained:
[1] = test system: 51Cr-labeled P815 lymphoma cell line; test: cell mediated cytotoxicity after mixed leukocyte culture; format: cell-based, mouse
Method: Cells harvested from MLC were tested for their cytotoxic activity against ^51Cr-labeled P815 (H-2^d)lymphoma cell line. Cytotoxic activity is given in LU/10^6cells (see Materials and Methods).
MHC-restricted CTL were activated in MLC by co-culturing 2.5×10^6 responding spleen cells for 5 days with an equal number of irradiated (25 Gy) allogeneic splenocytes in 2 ml/well of complete DMEM in 24-well plates (Costar).
Cytotoxic assays were performed as described previously (Leshem et al, 1999). Briefly, effector cells were serially diluted (threefold) in triplicate wells of conical-bottom microplates (Nunc) and mixed with washed ^51Cr-labeled target cells in a final 200 μl volume to make 4-6 effector target cell ratios. Microplates were centrifuged (70×g, 2 min.) and incubated for 4 h. They were then centrifuged at 200×g for 5 min. and the supernatants (150 μl) were counted in an automatic […] (LKB-Wallac, Finland). Percent of specific cytotoxic activity was calculated according to the formula: [(experimental cpm−background cpm)/(maximal cpm−background cpm)×100]. Lytic units (LU), were drawn from the cytotoxicity measured at 4-6 E:T cell ratios. One 1 LU is defined as the number of effector cells causing lysis of 30% target cells (Leshem and Brass, 1998).

PBQ-induced writhing = details: orally at doses up to 10 mg/kg; cited from earlier work
CB2 = CB2 (Homo sapiens, UniProt P34972); details: cited from earlier work
CB2, sequence (P34972 whole entry, species assumed): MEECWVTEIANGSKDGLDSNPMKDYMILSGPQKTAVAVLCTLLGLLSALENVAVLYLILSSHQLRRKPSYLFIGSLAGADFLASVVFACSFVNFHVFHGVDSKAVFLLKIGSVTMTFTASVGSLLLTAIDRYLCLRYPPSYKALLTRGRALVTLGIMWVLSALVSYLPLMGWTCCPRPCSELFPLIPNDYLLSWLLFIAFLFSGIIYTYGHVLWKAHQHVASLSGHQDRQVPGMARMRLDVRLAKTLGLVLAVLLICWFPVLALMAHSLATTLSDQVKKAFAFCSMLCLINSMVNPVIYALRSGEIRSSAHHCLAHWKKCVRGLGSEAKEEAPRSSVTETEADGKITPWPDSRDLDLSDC

TPA-induced erythema = details: applied topically; cited from earlier work
IL-10 = test: human rheumatoid synovial cell IL-10 production (ELISA); format: cell-based; details: for IL-10, mean: 48 hours culture
Method: (§1) Synovial membrane tissue was obtained from a patient fulfilling the revised American College of Rheumatology criteria for rheumatoid arthritis who underwent joint replacement surgery. Synovial cell cultures were prepared as described. Briefly, synovial membrane tissue was digested with collagenase type A (1 mg/ml) and DNAase I (0.15 mg/ml) in RPMI 1640 containing 5% FCS for 2 hours at 37° C.
(§2) Similarly, rheumatoid synovial cells spontaneously produce cytokines when cultured in vitro. […] With restricted number of human synovial cells in this sample, the optimal dose for inhibiting TNFα may have been missed.

chronic CIA [2] = test: chronic CIA model (mouse CII), CBD i.p.; format: in vivo; details: 5 weeks
Method: Results are expressed as a mean of 6 mice. The AUC for the control group is 38.4, and for the 5 mg/kg group 28.9.
(§3) For the chronic experiments, 6 weeks old mice were immunized with mouse CII (100 μg CII i.d.=intradermal). From day 30 after immunization onwards, the mice developed a chronic relapsing arthritis, which was monitored for 5 weeks, in the same way as described above.
(§4) For the chronic experiment with mouse CII, mice were treated from the first symptoms of arthritis every other day, for 5 weeks. […] Again, mice injected with Vehicle alone served as controls (n=7). For the oral route, the treatment was administered daily at a dose of 25 mg/kg (n=6) and control mice were fed olive oil (n=6).

Legionella = details: mouse, in vivo; cited from earlier work
[3] = test system: nitric oxide (NO) generation; test: nitric oxide (NO) generation by Thioglycollate induced macrophages, Griess reagent; format: cell-based, mouse
TNFα = details: cited from earlier work
chronic CIA [4] = test: chronic CIA, oral feeding of CBD; format: in vivo, mouse; details: 25 mg/kg oral daily
Method: Controls were fed vehicle (olive oil).
as §3, §4

[5] = test system: spleen cells (splenocytes); test: mitogen-induced cell proliferation of spleen cells; format: cell-based, mouse (BALB/c, C57BL/6)
Method: Cultures were pulsed with ^3H-thymidine and harvested 6 hours later.
Female mice (aged 8-12 weeks) of strains C57BL/6 (B6, H-2^b) and BALB/c (H-2^d) were purchased from Harlan, Jerusalem, and maintained under specific pathogen-free (SPF) conditions in the animal facilities of the Hebrew University Medical School, Jerusalem, in accordance with the Hebrew University guidelines, DMEM (Biological Industries, Beit Haemek. Israel) was supplemented with 1 mM sodium pyruvate, 10 mM HEPES buffer, 0.5 mM asparagine-HCl, 0.03 mM filic acid, 0.5 mM L-aspartic acid, 5×10^−5M 2-mercaptoethanol, 2 mM glutamine, antibotics and 10% FCS (complete DMEM).
Spleen cells, at a final concentration of 5×10^6 cells/ml, were cultured in triplicate wells of flat-bottom microtiter plates (Nunc, Denmark) in medium alone, 2.5 μg/ml concanavalin A (ConA. Biomakor, Israel) or 50 μ/ml lipopolysaccharide (LPS, Difco). The final volume was 200 μl/well. Following two days of incubation at 37° C., in an 8% CO2-in-air incubator (as in all other procedures described here), 1 μCi of ^3H-thymidine was added to each well. Cells were harvested 6 h later, with a Tomtec (USA) cell harvester and counted in a MicroBeta scintillation counter (Wallac, Finland).

IL-11 = test: human rheumatoid synovial cell IL-11 production (ELISA); format: cell-based; details: for IL-11, mean: 48 hours culture
Method: as §1, §2

[6] = LPS 1 μg/ml + IFNγ 10 U/ml, CBD 2 μg/ml
[7] = LPS 1 μg/ml + IFNγ 10 U/ml, CBD 4 (μg/ml)
[8] = LPS 1 μg/ml + IFNγ 10 U/ml, CBD 6 (μg/ml)
[9] = LPS 1 μg/ml + IFNγ 10 U/ml, CBD 8 (μg/ml)

Question: Which cell mediated cytotoxicity ([1]; above approximately 1 μg/ml CBD) does the source give for C=C(C)[C@@H]1CCC(C)=C[C@H]1c1c(O)cc(CCCCC)cc1O [CBD, Cannabidiol] here?
Answer: The cell mediated cytotoxicity was “decrease in cytotoxicity”.

Question: What about the cell mediated cytotoxicity ([1]; low concentrations of CBD) of the same compound?
Answer: Its cell mediated cytotoxicity is “increase cytotoxicity”.

Question: What about the PBQ-induced writhing (PBQ-induced writhing) of the same compound?
Answer: Its PBQ-induced writhing is “inhibited PBQ-induced writhing”.

Question: And the “binding to peripheral receptor CB2” value (CB2)?
Answer: Its value is “does not bind”.

Question: And the TPA-induced erythema (TPA-induced erythema)?
Answer: The TPA-induced erythema was “reduce TPA-induced erythema”.

Question: And the “IL-10 release (in words)” value (IL-10)?
Answer: Its value is “dose-dependent inhibition”.

Question: And the “IL-10, mean” value (IL-10; CBD 0.1 μg/ml)?
Answer: Its value is 273 pg/mL.

Question: What about the “IL-10, mean” value (IL-10; CBD 1 μg/ml) of the same compound?
Answer: Its value is 249 pg/mL.

Question: And the “IL-10, mean” value (IL-10; CBD 20 μg/ml)?
Answer: The value was 52 pg/mL.

Question: What about the “suppression of chronic arthritis (in words)” value (chronic CIA [2]; 5 mg/kg i.p.) of the same compound?
Answer: The value was “optimal in suppressing the arthritis”.

Question: What about the “area under the curve (AUC) of arthritis score” value (chronic CIA [2]; 5 mg/kg i.p., control group 38.4) of the same compound?
Answer: The value was 28.9.

Question: And the “suppression of chronic arthritis (in words)” value (chronic CIA [2]; 10 mg/kg i.p.)?
Answer: The value was “less effective than 5 mg/kg”.

Question: And the “mortality of mice sublethally injected with Legionella” value (Legionella)?
Answer: The value was “not affected”.

Question: What about the “% INHIBITION of NO, 24 h” value [3, 6] of the same compound?
Answer: Its value is 14%.

Question: And the “NO, 24 h” value [3, 6]?
Answer: The value was 12 nM.

Question: And the “NO, 48 h” value ([3]; LPS 1 μg/ml + IFNγ 10 U/ml, CBD 2 (μg/ml))?
Answer: The value was 25.4 nM.

Question: And the “% INHIBITION of NO, 24 h” value [3, 7]?
Answer: The value was 51%.

Question: What about the “NO, 24 h” value [3, 7] of the same compound?
Answer: Its value is 6.9 nM.

Question: And the “NO, 48 h” value [3, 7]?
Answer: Its value is 21.3 nM.

Question: What about the “% INHIBITION of NO, 24 h” value [3, 8] of the same compound?
Answer: Its value is 61%.

Question: And the “NO, 24 h” value [3, 8]?
Answer: Its value is 5.5 nM.

Question: What about the “NO, 48 h” value [3, 8] of the same compound?
Answer: The value was 18.1 nM.

Question: What about the “% INHIBITION of NO, 24 h” value [3, 9] of the same compound?
Answer: The value was 99%.

Question: What about the “NO, 24 h” value [3, 9] of the same compound?
Answer: The value was 0.2 nM.

Question: What about the “% INHIBITION of NO, 48 h” value [3, 9] of the same compound?
Answer: Its value is 85%.

Question: And the “NO, 48 h” value [3, 9]?
Answer: The value was 3.1 nM.

Question: What about the “% INHIBITION of NO, 24 h” value ([3]; LPS 1 μg/ml, CBD 2 (μg/ml)) of the same compound?
Answer: Its value is 32%.

Question: And the “NO, 24 h” value ([3]; LPS 1 μg/ml, CBD 2 (μg/ml))?
Answer: Its value is 3.7 nM.

Question: And the “% INHIBITION of NO, 48 h” value ([3]; LPS 1 μg/ml, CBD 2 (μg/ml))?
Answer: The value was 9%.

Question: And the “NO, 48 h” value ([3]; LPS 1 μg/ml, CBD 2 (μg/ml))?
Answer: Its value is 6.7 nM.

Question: And the “% INHIBITION of NO, 24 h” value ([3]; LPS 1 μg/ml, CBD 4 (μg/ml))?
Answer: Its value is 90%.

Question: And the “NO, 24 h” value ([3]; LPS 1 μg/ml, CBD 4 (μg/ml))?
Answer: Its value is 0.5 nM.

Question: What about the “% INHIBITION of NO, 48 h” value ([3]; LPS 1 μg/ml, CBD 4 (μg/ml)) of the same compound?
Answer: Its value is 37%.

Question: What about the “NO, 48 h” value ([3]; LPS 1 μg/ml, CBD 4 (μg/ml)) of the same compound?
Answer: Its value is 4.6 nM.

Question: And the “% INHIBITION of NO, 24 h” value ([3]; LPS 1 μg/ml, CBD 6 (μg/ml))?
Answer: Its value is 99%.

Question: And the “NO, 24 h” value ([3]; LPS 1 μg/ml, CBD 6 (μg/ml))?
Answer: Its value is 0.1 nM.

Question: What about the “% INHIBITION of NO, 48 h” value ([3]; LPS 1 μg/ml, CBD 6 (μg/ml)) of the same compound?
Answer: The value was 71%.

Question: What about the “NO, 48 h” value ([3]; LPS 1 μg/ml, CBD 6 (μg/ml)) of the same compound?
Answer: Its value is 2.1 nM.

Question: What about the “% INHIBITION of NO, 24 h” value ([3]; LPS 1 μg/ml, CBD 8 (μg/ml)) of the same compound?
Answer: The value was 99%.

Question: What about the “NO, 24 h” value ([3]; LPS 1 μg/ml, CBD 8 (μg/ml)) of the same compound?
Answer: Its value is 0.1 nM.

Question: What about the “% INHIBITION of NO, 48 h” value ([3]; LPS 1 μg/ml, CBD 8 (μg/ml)) of the same compound?
Answer: Its value is 95%.

Question: What about the “NO, 48 h” value ([3]; LPS 1 μg/ml, CBD 8 (μg/ml)) of the same compound?
Answer: The value was 0.4 nM.

Question: What about the “effect on nitric oxide production (in words)” value ([3]; higher concentrations of CBD) of the same compound?
Answer: The value was “inhibit nitric oxide production”.

Question: What about the “effect on nitric oxide production (in words)” value ([3]; low concentrations of CBD) of the same compound?
Answer: The value was “activate nitric oxide production”.

Question: And the TNFα production (TNFα)?
Answer: Its TNFα production is “decreased”.

Question: What about the “progression of chronic CIA (in words)” value (chronic CIA [4]) of the same compound?
Answer: Its value is “suppression of the progression of chronic CIA”.

Question: And the “area under the curve of arthritis score” value (chronic CIA [4]; controls 72.3)?
Answer: Its value is 49.7.

Question: And the “response of splenocytes to Concanavalin A (ConA) and LPS (3H-thymidine)” value ([5]; BALB/C splenocytes)?
Answer: The value was “decreases the response”.

Question: What about the “response of splenocytes to Concanavalin A (ConA) and LPS (3H-thymidine)” value ([5]; C57BL/6 splenocytes) of the same compound?
Answer: Its value is “decreases the response”.

Question: What about the “IL-11 release (in words)” value (IL-11) of the same compound?
Answer: Its value is “dose-dependent inhibition”.

Question: And the “IL-11, mean” value (IL-11; CBD 0.1 μg/ml)?
Answer: Its value is 2151 pg/mL.

Question: What about the “IL-11, mean” value (IL-11; CBD 1 μg/ml) of the same compound?
Answer: Its value is 2059 pg/mL.

Question: And the “IL-11, mean” value (IL-11; CBD 20 μg/ml)?
Answer: Its value is 100 pg/mL.
